According to publication PMC10233622, “Structural and functional investigation of a fungal member of carbohydrate esterase family 15 with potential specificity for rare xylans” (Acta Crystallographica. Section D, Structural Biology, 2023):

Target: T1, LfCE15C (Lentithecium fluviatile, UniProt A0A6G1IIU9)
T1 construct: gene K458DRAFT_349146; native signal peptide removed; secreted from Pichia pastoris SMD1168H; N-glycosylated at Asn241
Assay: nanoDSF thermal shift (Tycho NT.[…] nm)
Conditions: 20 mM ligand; 0.1 M sodium phosphate pH 6.5; indirect indication of binding

T1 sequence (A0A6G1IIU9 entry or part of it): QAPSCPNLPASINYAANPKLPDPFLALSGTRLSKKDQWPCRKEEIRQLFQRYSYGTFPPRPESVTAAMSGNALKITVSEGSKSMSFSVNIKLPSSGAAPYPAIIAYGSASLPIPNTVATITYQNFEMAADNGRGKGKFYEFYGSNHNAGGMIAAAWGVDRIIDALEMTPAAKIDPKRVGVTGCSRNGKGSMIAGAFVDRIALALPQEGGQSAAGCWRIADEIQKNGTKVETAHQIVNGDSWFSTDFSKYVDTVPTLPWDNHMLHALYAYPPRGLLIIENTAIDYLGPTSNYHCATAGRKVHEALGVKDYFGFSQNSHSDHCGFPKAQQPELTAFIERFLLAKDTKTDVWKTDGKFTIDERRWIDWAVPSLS

`O=C(OCc1ccccc1)[C@H]1OC(O)[C@H](O)[C@@H](O)[C@@H]1O` (stereo partly shown) [BnzGlcA, benzyl glucuronate] was tested, and the Ti shift was “A decrease in T i was observed with BnzGlcA”.
